Test results published in paper PMC6979384, “Characterization of the plant homeodomain (PHD) reader family for their histone tail interactions” (Epigenetics & Chromatin, 2020).
Values belong to the substance of their own block, whether it stands above or below them. Where no end group is shown, it is not given here. [ ]: non-standard residue; d: D form. pS = N[C@@H](COP(=O)(O)O)C(=O)O

How the values were obtained:
Experiment in all cases: Histone peptide microarray
Assay type in all cases: binding, human
PHRF1 (RP) = test system: PHRF1 (RP)
Outline: (§1)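 GST-tagged PHD readers, 0.5 μM, probed on a microarray of 293 synthetic histone peptides carrying single or combinatorial PTMs (optimized Petell protocol). Signals are averaged over 4 replicates and expressed as relative binding.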

DPF2 (PPC2W2) = test system: DPF2 (PPC2W2)
Outline: as §1

KDM5B (1) = test system: KDM5B (1)
Outline: as §1

PHF21A = test system: PHF21A
Outline: as §1

SP140L = test system: SP140L
Outline: as §1

PHF13 = test system: PHF13
Outline: as §1

PHF2 = test system: PHF2
Outline: as §1

CHD4 (PPCC) = test system: CHD4 (PPCC)
Outline: as §1

DIDO1 = test system: DIDO1
Outline: as §1

CHD5 (PCC) = test system: CHD5 (PCC)
Outline: as §1

KDM4C (TTP) = test system: KDM4C (TTP)
Outline: as §1

PHF8 = test system: PHF8
Outline: as §1

KDM5A (1) = test system: KDM5A (1)
Outline: as §1

PHF23 = test system: PHF23
Outline: as §1

ING3 = test system: ING3
Outline: as §1

MORC3 (CW) = test system: MORC3 (CW)
Outline: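 GST-tagged PHD finger readers were expressed, purified and applied at 0.5 μM to a microarray of 293 synthetic histone peptides carrying single or combinatorial PTMs, using an optimized protocol. Binding signals are averages with standard deviation from 4 replicates.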

CHD5 (PPCC) = test system: CHD5 (PPCC)
Outline: as §1

TRIM66 (PB) = test system: TRIM66 (PB)
Outline: as §1

BPTF (PB) = test system: BPTF (PB)
Outline: as §1

KDM5A (3) = test system: KDM5A (3)
Outline: as §1

ING1 = test system: ING1
Outline: as §1

ING5 = test system: ING5
Outline: as §1

BAZ2B = test system: BAZ2B
Outline: as §1

KDM7A = test system: KDM7A
Outline: as §1

RAG2 = test system: RAG2
Outline: as §1

ING4 = test system: ING4
Outline: as §1

MLL5 = test system: MLL5
Outline: as §1

ING2 = test system: ING2
Outline: as §1

KDM5B (3) = test system: KDM5B (3)
Outline: as §1

AIRE (PP) = test system: AIRE (PP)
Outline: as §1

TAF3 = test system: TAF3
Outline: as §1

[1] = sheet "Array Heatmap", GST-tagged reader, histone peptide array, total n = 4

Array Heatmap value (peptide array binding signal) (PHRF1 (RP); PHRF1 (RP), GST-tagged, arrays performed twice, n of 4): 0.4027 | Array Heatmap value (peptide array binding signal) (DPF2 (PPC2W2); DPF2 (PPC2W2), GST-tagged, arrays performed twice, n of 4): 0.6038 | Array Heatmap value (peptide array binding signal) (KDM5B (1); KDM5B (1), GST-tagged, arrays performed twice, n of 4): 0.6538 | Array Heatmap value (peptide array binding signal) (PHF21A; PHF21A, GST-tagged, arrays performed twice, n of 4): 0.4797 | Array Heatmap value (peptide array binding signal) (SP140L; SP140L, GST-tagged, arrays performed twice, n of 4): 0.3555 | Array Heatmap value (peptide array binding signal) (PHF13; PHF13, GST-tagged, arrays performed twice, n of 4): 0.6036 | Array Heatmap value (peptide array binding signal) (PHF2; PHF2, GST-tagged, arrays performed twice, n of 4): 0.4023 | Array Heatmap value (peptide array binding signal) (CHD4 (PPCC); CHD4 (PPCC), GST-tagged, arrays performed twice, n of 4): 0.5891 | Array Heatmap value (peptide array binding signal) (DIDO1; DIDO1, GST-tagged, arrays performed twice, n of 4): 0.6263 | Array Heatmap value (peptide array binding signal) (CHD5 (PCC); CHD5 (PCC), GST-tagged, arrays performed twice, n of 4): 0.7774 | Array Heatmap value (peptide array binding signal) (KDM4C (TTP); KDM4C (TTP), GST-tagged, arrays performed twice, n of 4): 0.5241 | Array Heatmap value (peptide array binding signal) (PHF8; PHF8, GST-tagged, arrays performed twice, n of 4): 0.3673 | Array Heatmap value (peptide array binding signal) (KDM5A (1); KDM5A (1), GST-tagged, arrays performed twice, n of 4): 0.482 | Array Heatmap value (peptide array binding signal) (PHF23; PHF23, GST-tagged, arrays performed twice, n of 4): 0.5205 | Array Heatmap value (peptide array binding signal) (ING3; ING3, GST-tagged, arrays performed twice, n of 4): 0.4609 | Array Heatmap value (peptide array binding signal) (MORC3 (CW); MORC3 (CW), GST-tagged, arrays performed twice, n of 4): 0.4032 | Array Heatmap value (peptide array binding signal) (CHD5 (PPCC); CHD5 (PPCC), GST-tagged, arrays performed twice, n of 4): 0.5428 | Array Heatmap value (peptide array binding signal) (TRIM66 (PB); TRIM66 (PB), GST-tagged, arrays performed twice, n of 4): 0.5729 | Array Heatmap value (peptide array binding signal) (BPTF (PB); BPTF (PB), GST-tagged, arrays performed twice, n of 4): 0.3406 | Array Heatmap value (peptide array binding signal) (KDM5A (3); KDM5A (3), GST-tagged, arrays performed twice, n of 4): 0.391 | Array Heatmap value (peptide array binding signal) (ING1; ING1, GST-tagged, arrays performed twice, n of 4): 0.5008 | Array Heatmap value (peptide array binding signal) (ING5; ING5, GST-tagged, arrays performed twice, n of 4): 0.3496 | Array Heatmap value (peptide array binding signal) (BAZ2B; BAZ2B, GST-tagged, arrays performed twice, n of 4): 0.4549 | Array Heatmap value (peptide array binding signal) (KDM7A; KDM7A, GST-tagged, arrays performed twice, n of 4): 0.4384 | Array Heatmap value (peptide array binding signal) (RAG2; RAG2, GST-tagged, arrays performed twice, n of 4): 0.2429 | Array Heatmap value (peptide array binding signal) (ING4; ING4, GST-tagged, arrays performed twice, n of 4): 0.4636 | Array Heatmap value (peptide array binding signal) (MLL5; MLL5, GST-tagged, arrays performed twice, n of 4): 0.519 | Array Heatmap value (peptide array binding signal) (ING2; ING2, GST-tagged, arrays performed twice, n of 4): 0.5905 | Array Heatmap value (peptide array binding signal) (KDM5B (3); KDM5B (3), GST-tagged, arrays performed twice, n of 4): 0.5168 | Array Heatmap value (peptide array binding signal) (AIRE (PP); AIRE (PP), GST-tagged, arrays performed twice, n of 4): 0.5117 | Array Heatmap value (peptide array binding signal) (TAF3; TAF3, GST-tagged, arrays performed twice, n of 4): 0.2828
Substance: H2AS1p + K5ac + K9ac + K13ac + K15ac: H2A 1-17 ([pS]GRGK(Ac)QGGK(Ac)ARAK(Ac)AK(Ac)TR; UniProt P0C0S8 2-18, looked up, fragment)

Substance: H3T6p + K9ac + K14ac + K18ac: H3 1-20
Array Heatmap signal, PHRF1 (RP) (PHRF1 (RP); [1]): 0.4494 | Array Heatmap signal, DPF2 (PPC2W2) (DPF2 (PPC2W2); [1]): 0.6625 | Array Heatmap signal, KDM5B (1) (KDM5B (1); [1]): 0.6556 | Array Heatmap signal, PHF21A (PHF21A; [1]): 0.4965 | Array Heatmap signal, SP140L (SP140L; [1]): 0.3823 | Array Heatmap signal, PHF13 (PHF13; [1]): 0.6581 | Array Heatmap signal, PHF2 (PHF2; [1]): 0.4724 | Array Heatmap signal, CHD4 (PPCC) (CHD4 (PPCC); [1]): 0.6105 | Array Heatmap signal, DIDO1 (DIDO1; [1]): 0.7306 | Array Heatmap signal, CHD5 (PCC) (CHD5 (PCC); [1]): 0.8634 | Array Heatmap signal, KDM4C (TTP) (KDM4C (TTP); [1]): 0.5471 | Array Heatmap signal, PHF8 (PHF8; [1]): 0.3706 | Array Heatmap signal, KDM5A (1) (KDM5A (1); [1]): 0.5024 | Array Heatmap signal, PHF23 (PHF23; [1]): 0.5587 | Array Heatmap signal, ING3 (ING3; [1]): 0.5178 | Array Heatmap signal, MORC3 (CW) (MORC3 (CW); [1]): 0.436 | Array Heatmap signal, CHD5 (PPCC) (CHD5 (PPCC); [1]): 0.5917 | Array Heatmap signal, TRIM66 (PB) (TRIM66 (PB); [1]): 0.6292 | Array Heatmap signal, BPTF (PB) (BPTF (PB); [1]): 0.3772 | Array Heatmap signal, KDM5A (3) (KDM5A (3); [1]): 0.5014 | Array Heatmap signal, ING1 (ING1; [1]): 0.5258 | Array Heatmap signal, ING5 (ING5; [1]): 0.4002 | Array Heatmap signal, BAZ2B (BAZ2B; [1]): 0.5434 | Array Heatmap signal, KDM7A (KDM7A; [1]): 0.5379 | Array Heatmap signal, RAG2 (RAG2; [1]): 0.2892 | Array Heatmap signal, ING4 (ING4; [1]): 0.4858 | Array Heatmap signal, MLL5 (MLL5; [1]): 0.6174 | Array Heatmap signal, ING2 (ING2; [1]): 0.6332 | Array Heatmap signal, KDM5B (3) (KDM5B (3); [1]): 0.5165 | Array Heatmap signal, AIRE (PP) (AIRE (PP); [1]): 0.4905 | Array Heatmap signal, TAF3 (TAF3; [1]): 0.2973
